Read-outs that look alike come from different tables or passages of the source.
Experiments:
GSK3β = GSK3β (Homo sapiens, UniProt P49841); assay: GSK3β radiolabelled kinase assay (% residual activity, IC50, ATP competition); format: biochemical; conditions: for remaining activity at 10 µM: at 10 μM compound
[1] = tested on: NO production in LPS-activated BV-2 cells; assay: NO production assay (Griess) in LPS-activated BV-2 cells; format: cell-based, murine; conditions: Mus musculus, read-out: NO Inhibition IC50
Procedure: (§1) 3-(4,5-dimethylthiazol-2-yl)-2,5-diphenyl-tetrazolium bromide (MTT) assay was performed to evaluate the cytotoxicity of the samples to the microglia. BV2 cells at the density of 4 × 10^4 cells /well were seeded in the 96 well plate and incubated for 24 h. Seeded cells were pre-treated with different concentration of the samples, and LPS (100 ng/ml) activation was performed after 30 min of compound treatment. Treated plate were incubated for 24 h in the incubator and nitric oxide assay and cell viability assay was performed. Treated cell’s conditioned medium was used to evaluate the NO assay, and the attached cells were used to evaluate the cell viability assay. 50 µL of conditioned medium (CM) from treated cells were transferred to a new 96 well plate for NO assay. This CM was mixed with the equal volume of the mixture of Gries reagent ((1% sulfanilamide and 0.1% N-1-napthylethylenediamine dihydrochloride). NaNO2 was used as standard and the colorimetric change were evidenced by measuring its OD at 540 nm in a microplate reader. The cells in the plate were incubated for 1 h with MTT solution making it the final concentration of […]. Blue stained cells were incubated with 200 ul of DMSO and the solution get changed to purple/formazan color and it was observed by measuring the absorbance at 570 nm in a microplate reader.NG-mono-methyl-L-arginine (L-NMMA), a well-known nitric oxide synthase (NOS) inhibitor, was used as a positive control.

MTT cell viability assay = format: cell-based, murine; conditions: mouse, BV-2 microglia cells (LPS-activated), mean ± SD; for viability at 24 h, 5 µM: 5 μM compound, % of LPS; for viability at 24 h, 1 µM: 1 μM compound
Procedure: as §1

EIF2AK1 = target: T1, EIF2AK1 (Homo sapiens, UniProt Q9BQI3); assay: Kinase panel assay (radiolabelled); format: biochemical; conditions: control GSK-2606414
T1 construct: purchased Reaction Biology Corp
Procedure: (§2) Every inhibitory activity of tested compounds was measured by radiolabelled method of Reaction Biology Corp). The radiolabelled ATP ([γ-^33P] ATP) replaced a substrate with ^33P-phosphorylated substrate so that the activity of a kinase was measured from the radiolabelled phosphorylated substrate. Kinase panel assay was tested at 30 μM testing compounds with an ATP concentration of 10 μM and a substrate concentration of 10 μM. % Residual activity against GSK3β was measured at 10 uM compounds 1 and 2. […] Curve fits of control compounds were performed where the enzyme activities at the highest concentration of compounds were less than 65%. The concentration of DMSO was controlled and raw data, % kinase activity was calculated relative to DMSO controls.

TRPM7/CHAK1 = target: T2, TRPM7/CHAK1 (Homo sapiens, UniProt Q96QT4); assay: Kinase panel assay (radiolabelled); format: biochemical; conditions: control NH125
T2 construct: purchased Reaction Biology Corp
Procedure: as §2

PDK1/PDHK1 = target: T3, PDK1/PDHK1 (Homo sapiens, UniProt Q15118); assay: Kinase panel assay (radiolabelled); format: biochemical; conditions: control GW5074
T3 construct: purchased Reaction Biology Corp
Procedure: as §2

PDK2/PDHK2 = target: T4, PDK2/PDHK2 (Homo sapiens, UniProt Q15119); assay: Kinase panel assay (radiolabelled); format: biochemical; conditions: control GW5074
T4 construct: purchased Reaction Biology Corp
Procedure: as §2

PDK3/PDHK3 = target: T5, PDK3/PDHK3 (Homo sapiens, UniProt Q15120); assay: Kinase panel assay (radiolabelled); format: biochemical; conditions: control GW5074
T5 construct: purchased Reaction Biology Corp
Procedure: as §2

PDK4/PDHK4 = target: T6, PDK4/PDHK4 (Homo sapiens, UniProt Q16654); assay: Kinase panel assay (radiolabelled); format: biochemical; conditions: control GW5074
T6 construct: purchased Reaction Biology Corp
Procedure: as §2

Sequence of GSK3β (P49841 whole entry): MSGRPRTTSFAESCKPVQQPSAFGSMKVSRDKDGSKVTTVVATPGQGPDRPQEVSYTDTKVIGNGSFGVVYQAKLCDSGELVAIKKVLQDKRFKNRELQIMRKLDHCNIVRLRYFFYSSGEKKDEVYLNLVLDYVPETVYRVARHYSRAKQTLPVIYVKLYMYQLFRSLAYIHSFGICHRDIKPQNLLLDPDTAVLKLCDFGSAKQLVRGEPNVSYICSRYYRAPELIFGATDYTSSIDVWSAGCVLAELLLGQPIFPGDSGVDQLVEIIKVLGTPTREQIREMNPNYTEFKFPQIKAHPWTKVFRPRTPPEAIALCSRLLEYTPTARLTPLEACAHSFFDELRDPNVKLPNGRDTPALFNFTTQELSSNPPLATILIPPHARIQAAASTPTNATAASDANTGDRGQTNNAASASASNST
T5 sequence (Q15120 whole entry): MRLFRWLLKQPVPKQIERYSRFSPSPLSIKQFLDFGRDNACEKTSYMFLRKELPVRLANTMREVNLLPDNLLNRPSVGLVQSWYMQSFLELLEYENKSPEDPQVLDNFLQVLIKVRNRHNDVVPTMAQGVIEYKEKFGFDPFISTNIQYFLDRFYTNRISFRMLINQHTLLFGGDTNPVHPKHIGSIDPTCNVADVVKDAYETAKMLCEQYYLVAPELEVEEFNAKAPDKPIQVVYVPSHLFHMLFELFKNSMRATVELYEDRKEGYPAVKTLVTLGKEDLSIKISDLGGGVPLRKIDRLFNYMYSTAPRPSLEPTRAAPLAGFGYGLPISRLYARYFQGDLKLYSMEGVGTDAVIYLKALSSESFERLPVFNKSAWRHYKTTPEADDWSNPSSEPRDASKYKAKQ
T6 sequence (Q16654 whole entry): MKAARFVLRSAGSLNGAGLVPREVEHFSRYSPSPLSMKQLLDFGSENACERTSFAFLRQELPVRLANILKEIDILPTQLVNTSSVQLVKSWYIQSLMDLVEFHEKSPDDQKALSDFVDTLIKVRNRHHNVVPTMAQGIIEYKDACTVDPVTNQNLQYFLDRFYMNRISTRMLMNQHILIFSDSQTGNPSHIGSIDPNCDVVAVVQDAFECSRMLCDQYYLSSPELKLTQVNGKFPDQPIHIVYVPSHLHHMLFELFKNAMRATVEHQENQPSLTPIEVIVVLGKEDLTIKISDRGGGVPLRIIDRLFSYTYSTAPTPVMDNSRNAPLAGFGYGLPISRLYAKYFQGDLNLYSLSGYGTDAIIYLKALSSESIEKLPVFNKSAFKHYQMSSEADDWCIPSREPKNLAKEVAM
T2 sequence (Q96QT4 whole entry): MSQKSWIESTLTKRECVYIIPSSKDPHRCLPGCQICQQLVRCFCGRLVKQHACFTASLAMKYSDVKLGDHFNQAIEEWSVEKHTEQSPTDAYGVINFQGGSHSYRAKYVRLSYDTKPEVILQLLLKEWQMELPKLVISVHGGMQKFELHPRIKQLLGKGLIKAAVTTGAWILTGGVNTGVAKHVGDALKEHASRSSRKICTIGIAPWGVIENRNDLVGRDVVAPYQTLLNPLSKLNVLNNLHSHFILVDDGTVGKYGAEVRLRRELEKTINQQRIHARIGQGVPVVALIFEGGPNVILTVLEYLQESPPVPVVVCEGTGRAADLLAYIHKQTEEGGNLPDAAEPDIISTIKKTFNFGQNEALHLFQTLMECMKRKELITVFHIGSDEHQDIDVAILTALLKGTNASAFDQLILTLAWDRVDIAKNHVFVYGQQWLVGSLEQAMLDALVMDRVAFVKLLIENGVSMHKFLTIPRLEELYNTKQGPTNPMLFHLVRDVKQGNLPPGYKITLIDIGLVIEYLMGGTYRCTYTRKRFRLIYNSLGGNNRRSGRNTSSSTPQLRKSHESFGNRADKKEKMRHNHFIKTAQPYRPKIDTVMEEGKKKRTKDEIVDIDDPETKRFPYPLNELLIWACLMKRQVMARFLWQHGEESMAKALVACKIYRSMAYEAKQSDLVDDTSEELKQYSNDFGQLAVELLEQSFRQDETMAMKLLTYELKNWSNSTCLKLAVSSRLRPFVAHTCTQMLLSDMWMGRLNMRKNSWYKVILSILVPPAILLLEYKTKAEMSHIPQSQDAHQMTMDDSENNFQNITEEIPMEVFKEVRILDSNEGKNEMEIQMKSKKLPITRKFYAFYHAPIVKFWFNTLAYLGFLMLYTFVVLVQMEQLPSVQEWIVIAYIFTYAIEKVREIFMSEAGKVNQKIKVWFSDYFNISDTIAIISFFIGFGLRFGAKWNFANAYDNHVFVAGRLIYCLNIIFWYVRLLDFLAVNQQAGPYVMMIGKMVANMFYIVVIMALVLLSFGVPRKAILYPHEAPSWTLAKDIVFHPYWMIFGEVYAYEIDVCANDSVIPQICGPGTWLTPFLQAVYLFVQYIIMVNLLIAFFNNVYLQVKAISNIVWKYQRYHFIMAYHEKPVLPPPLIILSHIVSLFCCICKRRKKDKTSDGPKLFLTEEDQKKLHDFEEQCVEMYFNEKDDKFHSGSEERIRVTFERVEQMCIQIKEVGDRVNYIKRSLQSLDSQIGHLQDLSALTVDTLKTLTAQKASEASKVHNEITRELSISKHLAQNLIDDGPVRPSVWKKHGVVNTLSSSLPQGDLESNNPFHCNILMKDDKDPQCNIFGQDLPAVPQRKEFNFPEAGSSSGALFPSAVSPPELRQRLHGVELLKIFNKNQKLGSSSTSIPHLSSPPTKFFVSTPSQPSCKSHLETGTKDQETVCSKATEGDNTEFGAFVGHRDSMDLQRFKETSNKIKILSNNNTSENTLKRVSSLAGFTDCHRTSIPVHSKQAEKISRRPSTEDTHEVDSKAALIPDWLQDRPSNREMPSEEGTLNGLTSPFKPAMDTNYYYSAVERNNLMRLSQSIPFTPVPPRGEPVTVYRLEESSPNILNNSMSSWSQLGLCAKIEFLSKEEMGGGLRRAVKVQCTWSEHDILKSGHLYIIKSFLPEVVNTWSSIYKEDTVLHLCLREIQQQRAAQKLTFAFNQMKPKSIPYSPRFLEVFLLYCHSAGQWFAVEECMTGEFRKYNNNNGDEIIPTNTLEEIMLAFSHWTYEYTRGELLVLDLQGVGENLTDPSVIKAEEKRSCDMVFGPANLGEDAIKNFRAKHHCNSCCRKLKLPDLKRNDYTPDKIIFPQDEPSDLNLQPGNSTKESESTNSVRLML
T3 sequence (Q15118 29-436): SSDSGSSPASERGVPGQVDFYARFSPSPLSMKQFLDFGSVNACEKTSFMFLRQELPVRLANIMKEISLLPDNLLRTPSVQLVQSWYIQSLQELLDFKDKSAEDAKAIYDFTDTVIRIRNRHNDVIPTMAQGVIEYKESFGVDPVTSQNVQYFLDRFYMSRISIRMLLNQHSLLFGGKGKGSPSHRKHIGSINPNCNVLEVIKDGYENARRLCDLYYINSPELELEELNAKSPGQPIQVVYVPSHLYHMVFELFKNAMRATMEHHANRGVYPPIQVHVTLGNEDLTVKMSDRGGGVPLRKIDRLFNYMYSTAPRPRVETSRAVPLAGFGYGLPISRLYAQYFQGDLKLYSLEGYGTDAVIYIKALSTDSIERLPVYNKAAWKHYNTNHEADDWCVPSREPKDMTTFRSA
T1 sequence (Q9BQI3 whole entry): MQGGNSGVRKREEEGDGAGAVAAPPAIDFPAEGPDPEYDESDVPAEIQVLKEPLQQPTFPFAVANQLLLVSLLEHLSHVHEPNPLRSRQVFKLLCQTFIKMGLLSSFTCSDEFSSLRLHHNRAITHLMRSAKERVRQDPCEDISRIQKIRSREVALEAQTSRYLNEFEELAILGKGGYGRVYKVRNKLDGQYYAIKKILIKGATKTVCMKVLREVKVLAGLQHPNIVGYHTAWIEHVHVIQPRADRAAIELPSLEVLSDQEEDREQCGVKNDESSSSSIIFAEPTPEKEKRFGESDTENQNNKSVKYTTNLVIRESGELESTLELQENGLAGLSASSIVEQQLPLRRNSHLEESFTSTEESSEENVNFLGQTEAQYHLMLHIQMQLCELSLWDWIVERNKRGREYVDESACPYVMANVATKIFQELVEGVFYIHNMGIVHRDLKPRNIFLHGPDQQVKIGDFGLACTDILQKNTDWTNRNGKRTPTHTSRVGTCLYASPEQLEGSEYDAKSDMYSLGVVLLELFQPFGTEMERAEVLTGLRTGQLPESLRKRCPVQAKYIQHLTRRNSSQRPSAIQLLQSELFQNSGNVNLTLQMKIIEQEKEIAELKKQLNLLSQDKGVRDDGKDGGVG

SMILES	remaining activity at 10 µM (GSK3β)	IC50 [1]	viability at 24 h, 5 µM (MTT cell viability assay)	further results
O=C1C=CC2(C=C1)OCC(Cc1cn(-c3ccc(C(F)(F)F)cc3)nn1)C(=O)N2c1ccccc1 (centres unmarked) [2f, 5-Phenyl-3-((1-(4-(trifluoromethyl)phenyl)-1H-1,2,3-triazol-4-yl)methyl)-1-oxa-5-azaspiro[5.5]undeca-7,10-diene-4,9-dione]	96.3 ± 16.5%	770 ± 20 nM	115 ± 3%	
Cc1cc(=O)oc2cc(-n3cc(CC4COC5(C=CC(=O)C=C5)N(c5ccccc5)C4=O)nn3)ccc12 (centres unmarked) [2p, 3-((1-(4-methyl-2-oxo-2H-chromen-7-yl)-1H-1,2,3-triazol-4-yl)methyl)-5-phenyl-1-oxa-5-azaspiro[5.5]undeca-7,10-diene-4,9-dione]	35.7 ± 3.7%	850 ± 190 nM	97 ± 2%	IC50 (GSK3β; ATP 1 μM (Table 2), read-out: IC50 on GSK3β (converted)): 11.4 µM
COc1ccc(-n2cc(CC3COC4(C=CC(=O)C=C4)N(c4ccccc4)C3=O)nn2)cc1 (centres unmarked) [2h, 3-((1-(4-Methoxyphenyl)-1H-1,2,3-triazol-4-yl)methyl)-5-phenyl-1-oxa-5-azaspiro[5.5]undeca-7,10-diene-4,9-dione]	112 ± 4.5%	760 ± 10 nM	124 ± 7%	
N#Cc1cccc(-n2cc(CC3COC4(C=CC(=O)C=C4)N(c4ccccc4)C3=O)nn2)c1 (centres unmarked) [2g, 3-(4-((4,9-Dioxo-5-phenyl-1-oxa-5-azaspiro[5.5]undeca-7,10-dien-3-yl)methyl)-1H-1,2,3-triazol-1-yl)benzonitrile]	41.8 ± 0.9%	800 ± 130 nM	128 ± 17%	
O=C1C=CC2(C=C1)OCC(Cc1cn(-c3cccc(Cc4ccccc4)c3)nn1)C(=O)N2c1ccccc1 (centres unmarked) [2j, 3-((1-(3-Benzylphenyl)-1H-1,2,3-triazol-4-yl)methyl)-5-phenyl-1-oxa-5-azaspiro[5.5]undeca-7,10-diene-4,9-dione]	10.5 ± 2%	630 ± 10 nM	74 ± 4%	IC50 (GSK3β; ATP 1 µM, 10-dose, threefold dilution from 10 μM, read-out: IC50 of GSK3β activity): 2.65 µM; IC50 (GSK3β; ATP 10 µM, 10-dose, threefold dilution from 10 μM, read-out: IC50 of GSK3β activity): 3.53 µM; IC50 (GSK3β; ATP 50 µM, 10-dose, threefold dilution from 10 μM, read-out: IC50 of GSK3β activity): 3.79 µM; IC50 (GSK3β; ATP 100 µM, 10-dose, threefold dilution from 10 μM, read-out: IC50 of GSK3β activity): 4.04 µM; IC50 (GSK3β; ATP 200 µM, 10-dose, threefold dilution from 10 μM, read-out: IC50 of GSK3β activity): 3.45 µM; dependence of GSK3β IC50 on ATP concentration (GSK3β; ATP 1, 10, 50, 100 and 200 µM): retained its IC50 activity regardless of the ATP concentration; viability at 24 h, 1 µM (MTT cell viability assay): 107 ± 6.88%
O=C1C=CC2(C=C1)OCC(Cc1cn(C34CC5CC(CC(C5)C3)C4)nn1)C(=O)N2c1ccccc1 [2q, 3-((1-((3R,5S)-adamantan-1-yl)-1H-1,2,3-triazol-4-yl)methyl)-5-phenyl-1-oxa-5-azaspiro[5.5]undeca-7,10-diene-4,9-dione]	71.6 ± 1.4%	780 ± 100 nM	87 ± 7%	
C#CCC1COC2(C=CC(=O)C=C2)N(c2ccccc2)C1=O (centres unmarked) [compound 7, 5-Phenyl-3-(prop-2-yn-1-yl)-1-oxa-5-azaspiro[5.5]undeca-7,10-diene-4,9-dione]	55.7 ± 8.4%	680 ± 70 nM	100 ± 24%	
O=C1C=CC2(C=C1)OCC(Cc1cn(Cc3ccccc3)nn1)C(=O)N2c1ccccc1 (centres unmarked) [2r, 3-((1-Benzyl-1H-1,2,3-triazol-4-yl)methyl)-5-phenyl-1-oxa-5-azaspiro[5.5]undeca-7,10-diene-4,9-dione]	61.7 ± 13.8%	650 ± 60 nM	75 ± 11%	viability at 24 h, 1 µM (MTT cell viability assay): 101.3 ± 0.67%
O=C1C=CC2(C=C1)OCC(Cc1ccccc1)C(=O)N2c1ccccc1 (centres unmarked) [1a]	85.8 ± 16.1%	540 nM	74 ± 7%	viability at 24 h, 1 µM (MTT cell viability assay): 95 ± 6.87%
O=C1C=CC2(C=C1)OCC(Cc1cn(-c3ccc(Br)cc3)nn1)C(=O)N2c1ccccc1 (centres unmarked) [2e, 3-((1-(4-Bromophenyl)-1H-1,2,3-triazol-4-yl)methyl)-5-phenyl-1-oxa-5-azaspiro[5.5]undeca-7,10-diene-4,9-dione]	69.6 ± 5.1%	670 ± 10 nM	93 ± 6%	viability at 24 h, 1 µM (MTT cell viability assay): 106 ± 1.28%
[H]/N=C(/NC)NCCC[C@H](N)C(=O)O [L-NMMA, NG-mono-methyl-L-arginine, reference compound]		19600 ± 420 nM	105 ± 4%	viability at 24 h, 1 µM (MTT cell viability assay): 101 ± 1.6%
O=C1C=CC2(C=C1)OCC(Cc1cn(-c3cccnc3)nn1)C(=O)N2c1ccccc1 (centres unmarked) [2b, 5-Phenyl-3-((1-(pyridin-3-yl)-1H-1,2,3-triazol-4-yl)methyl)-1-oxa-5-azaspiro[5.5]undeca-7,10-diene-4,9-dione]	87.5 ± 0.6%	870 ± 110 nM	120 ± 11%	
O=C1C=CC2(C=C1)OCC(Cc1cn(-c3ccc(F)cc3)nn1)C(=O)N2c1ccccc1 (centres unmarked) [2c, 3-((1-(4-Fluorophenyl)-1H-1,2,3-triazol-4-yl)methyl)-5-phenyl-1-oxa-5-azaspiro[5.5]undeca-7,10-diene-4,9-dione]	84.8 ± 5.3%	780 ± 40 nM	109 ± 13%	
Cn1cc(-c2ccc3c(c2)CCN3C(=O)Cc2cccc(C(F)(F)F)c2)c2c(N)ncnc21 [GSK-2606414, reference compound]				IC50 (EIF2AK1): 106 nM
CCCCCCCCCCCCCCCCn1cc[n+](Cc2ccccc2)c1C [NH125, reference compound]				IC50 (TRPM7/CHAK1): 5.86 µM
COc1cc(-n2cc(CC3COC4(C=CC(=O)C=C4)N(c4ccccc4)C3=O)nn2)ccc1F (centres unmarked) [2n, 3-((1-(4-fluoro-3-methoxyphenyl)-1H-1,2,3-triazol-4-yl)methyl)-5-phenyl-1-oxa-5-azaspiro[5.5]undeca-7,10-diene-4,9-dione]	85.6 ± 2%	850 ± 40 nM	102 ± 8%	
O=C1Nc2ccc(I)cc2/C1=C/c1cc(Br)c(O)c(Br)c1 [GW5074, reference compound]				IC50 (PDK1/PDHK1): 12.1 µM; IC50 (PDK2/PDHK2): 3.28 µM; IC50 (PDK3/PDHK3): 1820 nM; IC50 (PDK4/PDHK4): 2120 nM
O=C1C=CC2(C=C1)OCC(Cc1cn(-c3ccc4c(c3)OCO4)nn1)C(=O)N2c1ccccc1 (centres unmarked) [2o, 3-((1-(benzo[d][1,3]dioxol-5-yl)-1H-1,2,3-triazol-4-yl)methyl)-5-phenyl-1-oxa-5-azaspiro[5.5]undeca-7,10-diene-4,9-dione]	75 ± 0.7%	740 ± 80 nM	89 ± 8%	
CC(=O)Nc1ccc(-n2cc(CC3COC4(C=CC(=O)C=C4)N(c4ccccc4)C3=O)nn2)cc1 (centres unmarked) [2l, N-(4-(4-((4,9-Dioxo-5-phenyl-1-oxa-5-azaspiro[5.5]undeca-7,10-dien-3-yl)methyl)-1H-1,2,3-triazol-1-yl)phenyl)acetamide]	122 ± 2.3%	930 ± 60 nM	109 ± 16%	
CSc1ccc(-n2cc(CC3COC4(C=CC(=O)C=C4)N(c4ccccc4)C3=O)nn2)cc1 (centres unmarked) [2i, 3-((1-(4-(Methylthio)phenyl)-1H-1,2,3-triazol-4-yl)methyl)-5-phenyl-1-oxa-5-azaspiro[5.5]undeca-7,10-diene-4,9-dione]	66.9 ± 11.4%	980 ± 40 nM	121 ± 2%	
COc1cc(OC)cc(-n2cc(CC3COC4(C=CC(=O)C=C4)N(c4ccccc4)C3=O)nn2)c1 (centres unmarked) [2m, 3-((1-(3,5-B=Dimethoxyphenyl)-1H-1,2,3-triazol-4-yl)methyl)-5-phenyl-1-oxa-5-azaspiro[5.5]undeca-7,10-diene-4,9-dione]	114 ± 4.5%	1220 ± 300 nM	108 ± 5%	
O=C1C=CC2(C=C1)OCC(Cc1cn(-c3ccc(S(=O)(=O)C(F)(F)F)cc3)nn1)C(=O)N2c1ccccc1 (centres unmarked) [2k, 5-Phenyl-3-((1-(4-((trifluoromethyl)sulfonyl)phenyl)-1H-1,2,3-triazol-4-yl)methyl)-1-oxa-5-azaspiro[5.5]undeca-7,10-diene-4,9-dione]	35.1 ± 4.2%	770 ± 60 nM	71 ± 3%	

Source: article PMC7719162, “Positioning of an unprecedented spiro[5.5]undeca ring system into kinase inhibitor space” (Scientific Reports, 2020)
